Columns and labels:
HeLa cells = test: MTT antiproliferative assay, HeLa; assay type: cell-based; settings: Homo sapiens, 72 h; for inhibition at 10 µM / inhibition at 30 µM: read-out: Growth inhibition (%) ± SEM
Description: (§1) The in vitro anticancer effects of the presented compounds were assessed using the standard MTT [3-(4,5-dimethylthiazol2-yl)-2,5-diphenyltetrazolium bromide] assay on the following human cancer cell lines: cervical (HeLa and SiHa), breast (MCF-7 and MDA-MB-231) and ovarian cancer (A2780). The selectivity of the tested compounds was determined on murine embryonal fibroblast cells (NIH/3T3). The utilised cell lines were purchased from the European Collection of Cell Cultures (Salisbury, UK). The cells were cultivated in Eagle’s minimal essential medium supplemented with 10% fetal bovine serum, 1% non-essential amino acids and 1% antibiotic-antimycotic complex (penicillin, streptomycin, amphotericin B) at 37 °C in a humidified atmosphere containing 5% CO2. All media and supplements were purchased from Lonza Group Ltd. (Basel, Switzerland). The cancer cells were seeded into 96-well plates (5000 cells/well) and incubated overnight, and the test compounds were applied in two different concentrations (10 µM and 30 µM) and incubated for another 72 h under cell-culturing conditions. […] After 72 h, 20 µL of the 5 mg/mL MTT solution was added to each well, and the plates were incubated for 4 h. The medium was removed, and the formazan crystals produced by the mitochondrial activity were dissolved in dimethyl sulfoxide (DMSO) via shaking at 37 °C for 30 min. The absorbances were measured at 545 nm using a microplate reader (SPECTROStar Nano, BMG Labtech, Offenburg, Germany). The reference agent was cisplatin, which is a widely used cytotoxic agent. The IC50 values were calculated using sigmoid curve fitting. Two independent experiments were performed with five parallel wells for each condition. Calculations were performed using the GraphPad Prism 9 software (GraphPad Software Inc., San Diego, CA, USA).

NIH/3T3 fibroblast cells = test: MTT assay on non-malignant fibroblasts (selectivity); assay type: cell-based, murine; settings: Mus musculus, NIH3T3; for inhibition at 10 µM: NIH/3T3, 10 μM; for inhibition at 10 µM / inhibition at 30 µM: 72 h, read-out: Growth inhibition (%) ± SEM; for inhibition at 30 µM: NIH/3T3, 30 μM
Description: as §1

SiHa cells = test: MTT antiproliferative assay, SiHa; assay type: cell-based; settings: Homo sapiens, 72 h; for inhibition at 10 µM / inhibition at 30 µM: read-out: Growth inhibition (%) ± SEM
Description: as §1

MCF-7 cells = test: MTT antiproliferative assay, MCF-7; assay type: cell-based; settings: Homo sapiens, MCF7; for inhibition at 10 µM: MCF-7, 10 μM; for inhibition at 10 µM / inhibition at 30 µM: 72 h, read-out: Growth inhibition (%) ± SEM; for inhibition at 30 µM: MCF-7, 30 μM
Description: as §1

MDA-MB-231 cells = test: MTT antiproliferative assay, MDA-MB-231; assay type: cell-based; settings: Homo sapiens; for inhibition at 10 µM: MDA-MB-231, 10 μM; for inhibition at 10 µM / inhibition at 30 µM: 72 h, read-out: Growth inhibition (%) ± SEM; for inhibition at 30 µM: MDA-MB-231, 30 μM
Description: as §1

A2780 cells = test: MTT antiproliferative assay, A2780; assay type: cell-based; settings: Homo sapiens; for inhibition at 10 µM: A2780, 10 μM; for inhibition at 10 µM / inhibition at 30 µM: 72 h, read-out: Growth inhibition (%) ± SEM; for inhibition at 30 µM: A2780, 30 μM
Description: as §1

Row | SMILES | melting point [°C] | IC50 (HeLa cells; read-out: calculated IC50) [µM] | IC50 (MCF-7 cells; MCF-7, 72 h, read-out: calculated IC50) [µM] | IC50 (MDA-MB-231 cells; MDA-MB-231, 72 h, read-out: calculated IC50) [µM] | IC50 (A2780 cells; A2780, 72 h, read-out: calculated IC50) [µM] | inhibition at 10 µM (HeLa cells) [%] | inhibition at 30 µM (HeLa cells) [%] | inhibition at 10 µM (NIH/3T3 fibroblast cells) [%] | inhibition at 30 µM (NIH/3T3 fibroblast cells) [%] | inhibition at 10 µM (SiHa cells) [%] | inhibition at 30 µM (SiHa cells) [%] | inhibition at 10 µM (MCF-7 cells) [%] | inhibition at 30 µM (MCF-7 cells) [%] | inhibition at 10 µM (MDA-MB-231 cells) [%] | inhibition at 30 µM (MDA-MB-231 cells) [%] | inhibition at 10 µM (A2780 cells) [%] | inhibition at 30 µM (A2780 cells) [%] | IC50 (NIH/3T3 fibroblast cells; NIH/3T3, 72 h, read-out: calculated IC50) [µM] | IC50 (SiHa cells; read-out: calculated IC50) [µM]
1 | COC(=O)[C@]1(C)CCC[C@@]2(C)[C@@H]3CC[C@@]4(CO)C[C@]3(CC[C@@H]21)C[C@H]4N[C@@H](C)c1cccc2ccccc12 [Compound 14, (4R,4aS,6aR,8R,9R,11aR,11bS)-Methyl 9-(hydroxymethyl)-4,11b-dimethyl-8-(((S)-1-(naphthalen-1-yl)ethyl)amino)tetradecahydro-6a,9-methanocyclohepta[a]naphthalene-4-carboxylate] | 151 to 157 |  |  |  |  | 24.6 ± 2.79 | 95.1 ± 1.6 | 50.4 ± 2.91 | 97.15 ± 0.6 | 34.1 ± 2.53 | 88.88 ± 0.87 | 78.9 ± 4.11 | 97.44 ± 0.53 | 53.2 ± 2.44 | 95 ± 1.24 | 93.3 ± 1.99 | 99.57 ± 0.35 |  | 
2 | COC(=O)[C@]1(C)CCC[C@@]2(C)[C@@H]3CC[C@@]4(CNCc5ccccc5)C[C@]3(CC[C@@H]21)C[C@H]4O [Compound 22, (4R,4aS,6aR,8R,9S,11aR,11bS)-Methyl 9-((benzylamino)methyl)-8-hydroxy-4,11b-dimethyltetradecahydro-6a,9-methanocyclohepta[a]naphthalene-4-carboxylate] | 98 to 104 |  |  |  |  | 59.2 ± 6.61 | 90.87 ± 0.35 | 49 ± 1.37 | 94.25 ± 0.45 | 69 ± 2.02 | 80.8 ± 2.91 | 90.6 ± 0.98 | 94.23 ± 0.82 | 90.95 ± 0.4 | 89.66 ± 0.28 | 69.5 ± 3.98 | 96.04 ± 0.45 |  | 
3 | CC[C@H](N[C@@H]1C[C@]23CC[C@H]4[C@@](C)(CCC[C@@]4(C)C(=O)OC)[C@@H]2CC[C@@]1(CO)C3)c1ccccc1 [Compound 11, (4R,4aS,6aR,8R,9R,11aR,11bS)-Methyl 9-(hydroxymethyl)-4,11b-dimethyl-8-(((S)-1-phenylpropyl)amino)tetradecahydro-6a,9-methanocyclohepta[a]naphthalene-4-carboxylate] | 88 to 95 |  |  |  |  | < 20 | 94.48 ± 0.84 | 22.2 ± 2.22 | 93.6 ± 2.02 | < 20 | 83.7 ± 3.19 | 49.5 ± 3.06 | 96.94 ± 0.57 | < 20 | 90.8 ± 1.35 | 74.2 ± 2.1 | 98.12 ± 0.3 |  | 
4 | COC(=O)[C@]1(C)CCC[C@@]2(C)[C@@H]3CC[C@@]4(CO)C[C@]3(CC[C@@H]21)C[C@H]4N[C@H](C)c1ccc2ccccc2c1 [Compound 17, (4R,4aS,6aR,8R,9R,11aR,11bS)-Methyl 9-(hydroxymethyl)-4,11b-dimethyl-8-(((R)-1-(naphthalen-2-yl)ethyl)amino)tetradecahydro-6a,9-methanocyclohepta[a]naphthalene-4-carboxylate] | 150 to 153 | 3.51 | 2.47 | 5.62 | 4.06 | 90.5 ± 1.34 | 93.5 ± 2.5 | 20.5 ± 1.7 | 96.54 ± 0.62 | 83.3 ± 1.58 | 86.7 ± 1.74 | 86.3 ± 2.86 | 97.42 ± 0.71 | 91.5 ± 1.24 | 95.03 ± 0.91 | 100.6 ± 0.76 | 100 ± 0.91 | 8.7 | 5.37

Continued, in another order:

Row | melting point [°C] | IC50 (HeLa cells; read-out: calculated IC50) [µM] | IC50 (MCF-7 cells; MCF-7, 72 h, read-out: calculated IC50) [µM] | IC50 (MDA-MB-231 cells; MDA-MB-231, 72 h, read-out: calculated IC50) [µM] | IC50 (A2780 cells; A2780, 72 h, read-out: calculated IC50) [µM] | SMILES | inhibition at 10 µM (HeLa cells) [%] | inhibition at 30 µM (HeLa cells) [%] | inhibition at 10 µM (NIH/3T3 fibroblast cells) [%] | inhibition at 30 µM (NIH/3T3 fibroblast cells) [%] | inhibition at 10 µM (SiHa cells) [%] | inhibition at 30 µM (SiHa cells) [%] | inhibition at 10 µM (MCF-7 cells) [%] | inhibition at 30 µM (MCF-7 cells) [%] | inhibition at 10 µM (MDA-MB-231 cells) [%] | inhibition at 30 µM (MDA-MB-231 cells) [%] | inhibition at 10 µM (A2780 cells) [%] | inhibition at 30 µM (A2780 cells) [%] | IC50 (NIH/3T3 fibroblast cells; NIH/3T3, 72 h, read-out: calculated IC50) [µM] | IC50 (SiHa cells; read-out: calculated IC50) [µM]
5 | 172 to 176 |  |  |  |  | COC(=O)[C@]1(C)CCC[C@@]2(C)[C@@H]3CC[C@@]4(Cn5cc(Cc6ccccc6)nn5)C[C@]3(CC[C@@H]21)CC4=O [Compound 34, (4R,4aS,6aR,9S,11aR,11bS)-Methyl 9-((4-benzyl-1H-1,2,3-triazol-1-yl)methyl)-4,11b-dimethyl-8-oxotetradecahydro-6a,9-methanocyclohepta[a]naphthalene-4-carboxylate] | < 20 | 75.2 ± 1.26 | < 20 | 72.5 ± 0.96 | < 20 | 58.8 ± 2.24 | 37.5 ± 2.1 | 81.3 ± 2.02 | < 20 | 50.1 ± 2.41 | 31.8 ± 1.6 | 89.59 ± 0.45 |  | 
6 | 102 to 106 |  |  |  |  | COC(=O)[C@]1(C)CCC[C@@]2(C)[C@@H]3CC[C@@]4(CN[C@@H](C)c5ccc6ccccc6c5)C[C@]3(CC[C@@H]21)C[C@H]4O [Compound 30, (4R,4aS,6aR,8R,9S,11aR,11bS)-Methyl 8-hydroxy-4,11b-dimethyl-9-((((S)-1-(naphthalen-2-yl)ethyl)amino)methyl)tetradecahydro-6a,9-methanocyclohepta[a]naphthalene-4-carboxylate] | 40.8 ± 0.99 | 94.51 ± 0.19 | 21.5 ± 0.48 | 100.7 ± 0.2 | < 20 | 101.4 ± 0.6 | 79.5 ± 1.01 | 95.63 ± 0.55 | 50.7 ± 3.21 | 98.7 ± 0.49 | 33.1 ± 1.23 | 99.71 ± 0.27 |  | 
7 | 154 to 156 |  |  |  |  | COC(=O)[C@]1(C)CCC[C@@]2(C)[C@@H]3CC[C@@]4(Cn5cc(-c6ccccc6)nn5)C[C@]3(CC[C@@H]21)C[C@H]4O [Compound 35, (4R,4aS,6aR,8R,9S,11aR,11bS)-Methyl 8-hydroxy-4,11b-dimethyl-9-((4-phenyl-1H-1,2,3-triazol-1-yl)methyl)tetradecahydro-6a,9-methanocyclohepta[a]naphthalene-4-carboxylate] | < 20 | 88.11 ± 0.75 | 54.8 ± 1.4 | 93 ± 1.01 | < 20 | 81.4 ± 2.84 | 70 ± 3.11 | 88.79 ± 0.44 | < 20 | 92.44 ± 0.59 | 43.2 ± 1.63 | 97.37 ± 0.38 |  | 
8 | 137 to 140 |  |  |  |  | COC(=O)[C@]1(C)CCC[C@@]2(C)[C@@H]3CC[C@@]4(Cn5cc(-c6ccccc6)nn5)C[C@]3(CC[C@@H]21)CC4=O [Compound 33, (4R,4aS,6aR,9S,11aR,11bS)-Methyl 4,11b-dimethyl-8-oxo-9-((4-phenyl-1H-1,2,3-triazol-1-yl)methyl)tetradecahydro-6a,9-methanocyclohepta[a]naphthalene-4-carboxylate] | < 20 | 23.9 ± 5.01 | 54.5 ± 1.93 | 78.9 ± 2.52 | < 20 | < 20 | 57.1 ± 2.13 | 60.3 ± 3.65 | < 20 | < 20 | 41.1 ± 1.23 | 51.5 ± 1.41 |  | 
9 | 112 to 114 |  |  |  |  | COC(=O)[C@]1(C)CCC[C@@]2(C)[C@@H]3CC[C@@]4(Cn5cc(Cc6ccccc6)nn5)C[C@]3(CC[C@@H]21)C[C@H]4O [Compound 36, (4R,4aS,6aR,8R,9S,11aR,11bS)-Methyl 9-((4-benzyl-1H-1,2,3-triazol-1-yl)methyl)-8-hydroxy-4,11b-dimethyltetradecahydro-6a,9-methanocyclohepta[a]naphthalene-4-carboxylate] | < 20 | 89.32 ± 0.63 | < 20 | 92.91 ± 0.87 | < 20 | 79.4 ± 3.17 | 45.9 ± 3.4 | 91.8 ± 0.74 | < 20 | 91.38 ± 0.65 | 29.3 ± 1.68 | 96.31 ± 0.53 |  | 
